In ChEMBL document CHEMBL1909046, “DrugMatrix in vitro pharmacology data”:

Tests used:
[1] = DRUGMATRIX: Sodium/nucleoside co-transporter radioligand binding (ligand: nitrobenzylthioinosine); assay type: cell membranes, Cavia porcellus, Dunkin-Hartley, Cerebral cortex, Membrane; details: Not Active = under 50% inhibition at 10 µM
[2] = molecular target: T1, Alpha-1B adrenergic receptor (Rattus norvegicus, UniProt P15823); experiment: DRUGMATRIX: Alpha-1B adrenergic receptor radioligand binding (ligand: prazosin); assay type: cell membranes, Wistar, Liver, Membrane; details: Not Active = under 50% inhibition at 10 µM; for Ki: read-out: Ki
T1 sequence (P15823 whole entry): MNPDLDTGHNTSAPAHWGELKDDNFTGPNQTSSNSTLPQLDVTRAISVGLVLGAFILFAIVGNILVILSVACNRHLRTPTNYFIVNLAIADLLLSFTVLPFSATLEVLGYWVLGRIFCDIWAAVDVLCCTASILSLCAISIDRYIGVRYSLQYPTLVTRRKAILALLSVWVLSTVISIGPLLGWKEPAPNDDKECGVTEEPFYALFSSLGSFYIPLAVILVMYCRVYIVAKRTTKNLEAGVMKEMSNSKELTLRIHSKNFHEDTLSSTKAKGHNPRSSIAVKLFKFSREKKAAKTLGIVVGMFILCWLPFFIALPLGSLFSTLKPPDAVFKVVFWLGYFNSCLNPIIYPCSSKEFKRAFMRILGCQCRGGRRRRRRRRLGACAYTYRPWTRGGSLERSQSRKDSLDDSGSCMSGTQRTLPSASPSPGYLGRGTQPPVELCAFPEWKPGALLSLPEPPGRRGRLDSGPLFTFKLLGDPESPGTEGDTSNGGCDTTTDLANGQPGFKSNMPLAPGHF

[3] = molecular target: Aldo-keto reductase family 1 member B1 (Rattus norvegicus, UniProt P07943); experiment: biochemical; assay type: tissue-based, Lens of camera-type eye;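 note: inhibition of aldose reductase enzyme activity, measured with DL-glyceraldehyde as the substrate; in other assays of this panel Not Active means under 50% inhibition at 10 µM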
[4] = molecular target: T2, Type-2 angiotensin II receptor (Homo sapiens, UniProt P50052); experiment: biochemical; assay type: cell-based, CHO-K1; details: cho-k1; note: in other assays of this panel Not Active means under 50% inhibition at 10 µM
T2 sequence (P50052 whole entry): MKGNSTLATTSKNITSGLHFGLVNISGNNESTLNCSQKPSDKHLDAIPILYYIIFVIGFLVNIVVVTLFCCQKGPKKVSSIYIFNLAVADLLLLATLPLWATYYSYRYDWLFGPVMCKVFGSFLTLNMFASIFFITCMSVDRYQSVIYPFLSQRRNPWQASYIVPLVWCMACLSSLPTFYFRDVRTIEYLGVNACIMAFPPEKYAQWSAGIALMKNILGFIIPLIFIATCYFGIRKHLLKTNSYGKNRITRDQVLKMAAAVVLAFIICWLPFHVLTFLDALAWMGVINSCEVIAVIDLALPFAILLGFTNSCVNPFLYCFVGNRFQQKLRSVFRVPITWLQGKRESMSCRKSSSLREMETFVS

Thromboxane-A synthase = molecular target: T3, Thromboxane-A synthase (Homo sapiens, UniProt P24557); experiment: biochemical; assay type: tissue-based, Platelet; details: platelet;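 note: enzyme inhibition assay with PGH2 supplied as substrate; in other assays of this panel Not Active means under 50% inhibition at 10 µM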
T3 sequence (P24557 whole entry): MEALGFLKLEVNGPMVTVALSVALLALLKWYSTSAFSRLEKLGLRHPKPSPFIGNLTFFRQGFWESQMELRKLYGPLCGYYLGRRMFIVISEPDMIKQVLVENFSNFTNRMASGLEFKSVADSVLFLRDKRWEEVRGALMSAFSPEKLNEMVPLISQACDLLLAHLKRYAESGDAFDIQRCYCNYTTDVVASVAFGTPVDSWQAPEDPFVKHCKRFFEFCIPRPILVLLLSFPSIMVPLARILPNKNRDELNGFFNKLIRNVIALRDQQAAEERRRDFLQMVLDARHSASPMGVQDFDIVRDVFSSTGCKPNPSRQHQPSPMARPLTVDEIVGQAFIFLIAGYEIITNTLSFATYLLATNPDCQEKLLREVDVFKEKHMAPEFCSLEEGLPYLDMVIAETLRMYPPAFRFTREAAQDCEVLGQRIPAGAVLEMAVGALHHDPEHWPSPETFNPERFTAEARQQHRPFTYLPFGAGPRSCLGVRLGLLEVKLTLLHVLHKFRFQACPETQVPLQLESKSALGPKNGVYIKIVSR

[5] = molecular target: 5-hydroxytryptamine receptor 1B (Rattus norvegicus, UniProt P28564); assay type: cell membranes, Wistar, Cerebral cortex, Membrane; note: in other assays of this panel Not Active means under 50% inhibition at 10 µM
Sequence of 5-hydroxytryptamine receptor 1B (P28564 whole entry): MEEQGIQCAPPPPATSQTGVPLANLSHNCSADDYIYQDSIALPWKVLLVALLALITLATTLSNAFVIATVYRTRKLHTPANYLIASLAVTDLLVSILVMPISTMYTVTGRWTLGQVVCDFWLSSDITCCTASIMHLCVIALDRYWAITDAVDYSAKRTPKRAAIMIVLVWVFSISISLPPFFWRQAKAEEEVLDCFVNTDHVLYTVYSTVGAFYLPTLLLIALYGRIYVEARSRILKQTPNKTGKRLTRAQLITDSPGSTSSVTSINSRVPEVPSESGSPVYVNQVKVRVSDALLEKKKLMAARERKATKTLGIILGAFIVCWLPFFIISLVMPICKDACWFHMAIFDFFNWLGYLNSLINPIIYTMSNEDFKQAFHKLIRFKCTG

Structure (SMILES)	IC50 [1]	Ki [1]	IC50 [2]	IC50 [3]	IC50 [4]	IC50 (Thromboxane-A synthase)	IC50 [5]	IC50 ([2]; read-out: IC50) [nM]	Ki [2] [nM]	IC50 ([3]; read-out: IC50) [µM]
CC(C)(C(=O)O)c1ccc(C(O)CCCN2CCC(C(O)(c3ccccc3)c3ccccc3)CC2)cc1 (stereo not drawn) [FEXOFENADINE]	Not Active	Not Active	Not Active	Not Active	Not Active	Not Active	Not Active	–	–	–
CN1CCN(c2c(F)cc3c(=O)c(C(=O)O)cn(CCF)c3c2F)CC1 [FLEROXACIN]	Not Active	Not Active	Not Active	Not Active	Not Active	Not Active	Not Active	–	–	–
O=c1[nH]c(=O)n([C@H]2C[C@H](O)[C@@H](CO)O2)cc1F [FLOXURIDINE]	Not Active	Not Active	Not Active	Not Active	Not Active	Not Active	Not Active	–	–	–
CC(=O)OCC(=O)[C@@]12OC(C)(C)O[C@@H]1C[C@H]1[C@@H]3C[C@H](F)C4=CC(=O)C=C[C@]4(C)[C@@]3(F)[C@@H](O)C[C@@]12C [FLUOCINONIDE]	Not Active	Not Active	Not Active	Not Active	Not Active	Not Active	Not Active	–	–	–
O=C(O)P(=O)(O)O [FOSCARNET]	Not Active	Not Active	Not Active	Not Active	Not Active	Not Active	Not Active	–	–	–
CCCCC1=NC2(CCCC2)C(=O)N1Cc1ccc(-c2ccccc2-c2nnn[nH]2)cc1 [IRBESARTAN]	Not Active	Not Active	Not Active	Not Active	Not Active	Not Active	Not Active	–	–	–
CN1CCC(=C2c3ccccc3CC(=O)c3sccc32)CC1 [KETOTIFEN]	Not Active	Not Active	Not Active	Not Active	Not Active	Not Active	Not Active	–	–	–
C[N+](C)(C)C[C@H](O)CC(=O)[O-] [LEVOCARNITINE]	Not Active	Not Active	Not Active	Not Active	Not Active	Not Active	Not Active	–	–	–
C[C@H]1COc2c(N3CCN(C)CC3)c(F)cc3c(=O)c(C(=O)O)cn1c23.C[C@H]1COc2c(N3CCN(C)CC3)c(F)cc3c(=O)c(C(=O)O)cn1c23.O [LEVOFLOXACIN]	Not Active	Not Active	Not Active	Not Active	Not Active	Not Active	Not Active	–	–	–
CCn1cc(C(=O)O)c(=O)c2cc(F)c(N3CCNC(C)C3)c(F)c21 (stereo not drawn) [LOMEFLOXACIN]	Not Active	Not Active	Not Active	Not Active	Not Active	Not Active	Not Active	–	–	–
CN1CCCC(CN2c3ccccc3Sc3ccccc32)C1 (stereo not drawn) [MEPAZINE]	Not Active	Not Active	–	Not Active	Not Active	Not Active	Not Active	61	34	–
Cc1cccc(C)c1NC(=O)C1CCCCN1C (stereo not drawn) [MEPIVACAINE]	Not Active	Not Active	Not Active	Not Active	Not Active	Not Active	Not Active	–	–	–
CN(C)C(=N)NC(=N)N [METFORMIN]	Not Active	Not Active	Not Active	Not Active	Not Active	Not Active	Not Active	–	–	–
CC(C)(C)NCC(O)COc1cccc2c1CC(O)C(O)C2 (stereo not drawn) [NADOLOL]	Not Active	Not Active	Not Active	Not Active	Not Active	Not Active	Not Active	–	–	–
C[C@]12CC[C@H]3[C@@H](CCC4=CC(=O)CC[C@@H]43)[C@@H]1CC[C@@H]2O [NANDROLONE]	Not Active	Not Active	Not Active	Not Active	Not Active	Not Active	Not Active	–	–	–
C[C@@H]1C/C=C/C=C/C=C/C=C/[C@H](O[C@@H]2O[C@H](C)[C@@H](O)[C@H](N)[C@@H]2O)C[C@@H]2O[C@](O)(C[C@@H](O)C[C@H]3O[C@@H]3/C=C/C(=O)O1)C[C@H](O)[C@H]2C(=O)O [NATAMYCIN]	Not Active	Not Active	Not Active	Not Active	Not Active	Not Active	Not Active	–	–	–
CN(C)C(=O)Oc1cccc([N+](C)(C)C)c1.[Br-] [NEOSTIGMINE BROMIDE]	Not Active	Not Active	Not Active	Not Active	Not Active	Not Active	Not Active	–	–	–
NC(=O)c1cccnc1 [NIACINAMIDE]	Not Active	Not Active	Not Active	Not Active	Not Active	Not Active	Not Active	–	–	–
CS(=O)(=O)Nc1ccc([N+](=O)[O-])cc1Oc1ccccc1 [NIMESULIDE]	Not Active	Not Active	Not Active	Not Active	Not Active	Not Active	Not Active	–	–	–
COc1ccc2c(c1OC)C(=O)O[C@@H]2[C@H]1c2c(cc3c(c2OC)OCO3)CCN1C [NOSCAPINE]	Not Active	Not Active	Not Active	Not Active	Not Active	Not Active	Not Active	–	–	–
NC(=O)N1c2ccccc2CC(=O)c2ccccc21 [OXCARBAZEPINE]	Not Active	Not Active	Not Active	Not Active	Not Active	Not Active	Not Active	–	–	–
COc1ccnc(C[S+]([O-])c2nc3ccc(OC(F)F)cc3[nH]2)c1OC (stereo not drawn) [PANTOPRAZOLE]	Not Active	Not Active	Not Active	Not Active	Not Active	Not Active	Not Active	–	–	–
N=C(N)c1ccc(OCCCCCOc2ccc(C(=N)N)cc2)cc1 [PENTAMIDINE]	Not Active	Not Active	–	Not Active	Not Active	Not Active	Not Active	967	535	–
NNCCc1ccccc1 [PHENELZINE]	Not Active	Not Active	Not Active	Not Active	Not Active	Not Active	Not Active	–	–	–
CCc1ccc(CCOc2ccc(CC3SC(=O)NC3=O)cc2)nc1 (stereo not drawn) [PIOGLITAZONE]	Not Active	Not Active	Not Active	–	Not Active	Not Active	Not Active	–	–	13.2
CCCNC(C)C(=O)Nc1ccccc1C (stereo not drawn) [PRILOCAINE]	Not Active	Not Active	Not Active	Not Active	Not Active	Not Active	Not Active	–	–	–
CCN(CC)CCNC(=O)c1ccc(N)cc1 [PROCAINAMIDE]	Not Active	Not Active	Not Active	Not Active	Not Active	Not Active	Not Active	–	–	–
C[C@]12C=CC(=O)C=C1CC[C@H]1[C@@H]3C[C@@H](O)[C@](O)(C(=O)CO)[C@@]3(C)C[C@H](O)[C@@]12F [TRIAMCINOLONE]	Not Active	Not Active	Not Active	Not Active	Not Active	Not Active	Not Active	–	–	–
